As a reminder, the IC50 is the concentration that gives 50% inhibition. Read a high IC50 as weaker potency.

The structures appear in SMILES notation.

In assay [1] the target is pkDAAO (porcine kidney DAAO) (Sus scrofa (Pig), UniProt P00371). The assay can be described thus: pkDAAO (porcine kidney DAAO) activity, D-Proline substrate, OPD OD450. Format: biochemical. Here is the method:
The pkDAAO (porcine kidney DAAO) activity was measured by using D-Proine as a substrate to produce hydrogen peroxide (H2O2). The produced H2O2 would be oxidized by peroxidase, and the produced free radicals would further react with 1,2-Phenylenediamine (OPD) reagent. […] The OD450 would be measured to represent the activity of pkDAAO. All compounds were dissolved in DMSO. Each compound was diluted with DMSO in 3 or 4-fold serial dilution to create a 9-point dose response curve. Each sample was added in triplicate, 10 μL/well, into 96-well assay microplate. Positive control wells were added with 10 μL of DMSO. The diluted compounds were incubated with pkDAAO in dark for 10 minutes and then reacted with D-Proline. The final reaction mixture was composed of 0.01 U/mL pkDAAO, 0.03% OPD, 25 U/mL HRP and 40 mM D-Proline in PBS. The reaction plates were then incubated in the dark at room temperature. The OD450 absorbance readout was detected at 0 and 20 minute by Molecular Device Spectra Max Plus reader. The percentage of inhibition values for each well were calculated with the following equation: The percentage of inhibition=(OD450sample, 20 min−OD450sample, 0 min)/(OD450DMSO, 20 min−OD450DMSO, 0 min)×100%
(§1) The nonlinear curve fitting model in GraphPad Prism 5 was used to calculate IC50 value for each compound.

The target of assay [2] is hDAAO (human DAAO) (Homo sapiens (Human), UniProt P14920). The assay can be described thus: hDAAO (human DAAO) activity, D-serine substrate, Amplex Red fluorescence. Format: biochemical. Here is the method: The hDAAO (human DAAO) activity was measured by using D-serine as a substrate to produce H2O2. The produced H2O2 would be oxidized by peroxidase, and the produced free radicals would further react with Amplex Red reagent to emit fluorescence. The intensity of fluorescence at 590 nm would be measured to represent the activity of hDAAO. All compounds were dissolved in DMSO. Each compound was diluted with DMSO in 3-fold serial dilution to create a 9-point dose response curve. Each sample was added in triplicate, 1 μL/well, into 96-well black plates. Positive control wells were added with 1 μL of DMSO. Then 49 μL of assay buffer (100 mM Tris-HCl, pH 8.5) containing 1.2 ng/mL hDAAO, 900 nM FAD, 0.2 units/mL HRP, and 100 μM Amplex Red was added to each well of the plate using a multichannel pipette. Next, 50 μL of 100 mM D-Serine in assay buffer was added. The reaction plates were then incubated in the dark at room temperature. The fluorescence readout was detected at 0 and 20 minute by Molecular Device Gemini EM fluorescence reader using the following settings: excitation filter 530 nm, and emission filter 590 nm. The percentage of inhibition values for each well was calculated with the following equation: The percentage of inhibition=(fluorescencesample, 20 min−fluorescencesample, 0 min)/(fluorescenceDMSO, 20 min−fluorescenceDMSO, 0 min)×100%
hDAAO (human DAAO), sequence (P14920 whole entry): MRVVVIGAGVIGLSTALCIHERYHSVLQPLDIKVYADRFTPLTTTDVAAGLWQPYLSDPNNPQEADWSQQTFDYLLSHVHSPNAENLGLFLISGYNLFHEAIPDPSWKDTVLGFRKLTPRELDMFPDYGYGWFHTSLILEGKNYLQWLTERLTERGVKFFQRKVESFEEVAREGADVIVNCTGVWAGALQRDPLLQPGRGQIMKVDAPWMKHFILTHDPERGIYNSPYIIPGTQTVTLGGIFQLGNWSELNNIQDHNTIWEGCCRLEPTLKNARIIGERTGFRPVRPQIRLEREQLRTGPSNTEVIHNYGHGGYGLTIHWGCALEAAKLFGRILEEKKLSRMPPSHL
as §1

pkDAAO (porcine kidney DAAO), sequence (P00371 whole entry): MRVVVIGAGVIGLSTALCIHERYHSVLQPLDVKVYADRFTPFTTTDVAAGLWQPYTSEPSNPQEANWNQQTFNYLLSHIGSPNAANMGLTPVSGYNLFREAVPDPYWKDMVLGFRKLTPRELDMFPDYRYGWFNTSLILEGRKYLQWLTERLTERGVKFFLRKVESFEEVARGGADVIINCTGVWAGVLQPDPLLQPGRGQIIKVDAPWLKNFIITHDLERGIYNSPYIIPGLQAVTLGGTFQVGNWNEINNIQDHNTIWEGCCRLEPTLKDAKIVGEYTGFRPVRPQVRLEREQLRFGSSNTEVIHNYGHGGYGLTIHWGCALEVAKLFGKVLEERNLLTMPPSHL

Consider `O=C(Oc1cc(CCc2cccc3ccccc23)n[nH]c1=O)c1cc(CCc2ccccc2)n[nH]1`, for which the IC50 in assay [1] is 0.01 to 0.1 µM; in assay [2], 0.1 to 0.5 µM.
Regarding `O=C(Oc1cc(Cc2cccc3ccccc23)n[nH]c1=O)c1cc(CCc2cccc(Cl)c2)n[nH]1` [Compound 67, 6-(naphthalen-1-ylmethyl)-3-oxo-2,3-dihydropyridazin-4-yl 3-(3-chlorophenethyl)-1H-pyrazole-5-carboxylate], the IC50 in assay [1] lay within 0.01 to 0.1 µM; in assay [2], 0.1 to 0.5 µM.
On to `O=C(Oc1cc2c(Cl)cccc2[nH]c1=O)c1cc(CCc2ccc(Cl)cc2)n[nH]1` [Compound 32, 5-chloro-2-oxo-1,2-dihydroquinolin-3-yl 3-(4-chlorophenethyl)-1H-pyrazole-5-carboxylate], for which the IC50 in assay [1] lay in the range of 0.1 to 0.5 µM; in assay [2] it was 0.1 to 1 µM.
The like results for `O=C(Oc1cc2c(Cl)cccc2[nH]c1=O)c1cc(CCc2ccc(Cl)cc2)c[nH]1` [Compound 18, 5-chloro-2-oxo-1,2-dihydroquinolin-3-yl 4-(4-chlorophenethyl)-1H-pyrrole-2-carboxylate] were, in that order, 1 to 10 µM and 0.1 to 0.5 µM.
As for `O=C(Oc1cc(CCc2cc(F)cc(F)c2)n[nH]c1=O)c1cc(CCc2ccc(Cl)cc2)c[nH]1` [Compound 56, 6-(3,5-difluorophenethyl)-3-oxo-2,3-dihydropyridazin-4-yl 4-(4-chlorophenethyl)-1H-pyrrole-2-carboxylate], the IC50 in assay [1] lay within 10 to 100 µM; in assay [2], 1 to 10 µM.
With `O=C(Oc1cc(CCc2cccc3ccccc23)n[nH]c1=O)c1cc(CCc2ccc(Cl)cc2)n[nH]1`, the IC50 fell in the range of 0.01 to 0.1 µM in assay [1] and 0.1 to 0.5 µM in assay [2].
As to `O=C(Oc1cc(Cc2cccc3ccccc23)n[nH]c1=O)c1cc(CCc2ccccc2Cl)n[nH]1`, the IC50 was in the range of 0.01 to 0.1 µM in assay [1] and 0.1 to 0.5 µM in assay [2].
With `O=C(Oc1cc(CSc2ccc(Cl)c(Cl)c2)c[nH]c1=O)c1cc(CCc2ccccc2)n[nH]1` [Compound 49, 5-(((3,4-dichlorophenyl)thio)methyl)-2-oxo-1,2-dihydropyridin-3-yl 3-phenethyl-1H-pyrazole-5-carboxylate], the IC50 is 0.1 to 1 µM in assay [1] and 1 to 10 µM in assay [2].
As for `O=C(Oc1cc(CSc2ccc(Cl)c(Cl)c2)c[nH]c1=O)c1cc(CCc2ccccc2)c[nH]1` [Compound 50, 5-(((3,4-dichlorophenyl)thio)methyl)-2-oxo-1,2-dihydropyridin-3-yl 4-phenethyl-1H-pyrrole-2-carboxylate], the IC50 in assay [1] and in assay [2] was 1 to 10 µM throughout.
With `O=C(Oc1cc2c(Cl)cccc2[nH]c1=O)c1cc(CCc2ccccc2)c[nH]1` [Compound 23, 5-chloro-2-oxo-1,2-dihydroquinolin-3-yl 4-phenethyl-1H-pyrrole-2-carboxylate], the IC50 in assay [1] was 1 to 10 µM; in assay [2], 0.1 to 1 µM.
As to `O=C(Oc1cc2c(Cl)cccc2[nH]c1=O)c1cc(CCc2ccccc2)n[nH]1` [Compound 27, 5-chloro-2-oxo-1,2-dihydroquinolin-3-yl 3-phenethyl-1H-pyrazole-5-carboxylate], the results for the IC50 in assay [1] and in assay [2] were 0.1 to 1 µM and 0.1 to 0.5 µM, respectively.
Regarding `O=C(Oc1cc(Cc2cccc3ccccc23)n[nH]c1=O)c1cc(CCc2ccccc2)n[nH]1` [Compound 62, 6-(naphthalen-1-ylmethyl)-3-oxo-2,3-dihydropyridazin-4-yl 3-phenethyl-1H-pyrazole-5-carboxylate], the figures for the IC50 in assay [1] and in assay [2] were 0.01 to 0.1 µM and 0.1 to 1 µM, respectively.
On to `O=C(Oc1coc(CO)cc1=O)c1cc2occc2[nH]1` [Compound 9, 6-(hydroxymethyl)-4-oxo-4H-pyran-3-yl 4H-furo[3,2-b]pyrrole-5-carboxylate], for which the IC50 in assay [1] lay within 10 to 100 µM; in assay [2] it was 1 to 10 µM.
As to `O=C(Oc1cc(Cc2ccc3ccccc3c2)n[nH]c1=O)c1cc(CCc2ccccc2)n[nH]1`, the IC50 in assay [1] was in the range of 0.01 to 0.1 µM; in assay [2] it was 0.1 to 0.5 µM.
Take `O=C(Oc1cc(Cc2cccc3ccccc23)n[nH]c1=O)c1cc(CCc2ccc(F)cc2)n[nH]1` [Compound 72, 6-(naphthalen-1-ylmethyl)-3-oxo-2,3-dihydropyridazin-4-yl 3-(4-fluorophenethyl)-1H-pyrazole-5-carboxylate]: the values for the IC50 in assay [1] and in assay [2] were 0.01 to 0.1 µM and 0.1 to 0.5 µM, respectively.
For the compound `O=C(Oc1coc(CSc2ccc(Cl)cc2)cc1=O)c1cc(CCc2ccc(Cl)cc2)c[nH]1` [Compound 14, 6-(((4-chlorophenyl)thio)methyl)-4-oxo-4H-pyran-3-yl 4-(4-chlorophenethyl)-1H-pyrrole-2-carboxylate], the IC50 was 10 to 100 µM in assay [1] and 1 to 10 µM in assay [2].
With `O=C(Oc1coc(CO)cc1=O)c1cc(CCc2ccc(Cl)cc2)c[nH]1` [Compound 5, 6-(hydroxymethyl)-4-oxo-4H-pyran-3-yl 4-(4-chlorophenethyl)-1H-pyrrole-2-carboxylate], the IC50 in assay [1] and in assay [2] was 10 to 100 µM each time.
Consider `O=C(Oc1cc(Cc2cccc3ccccc23)n[nH]c1=O)c1cc(Cc2ccccc2)n[nH]1` [Compound 77, 6-(naphthalen-1-ylmethyl)-3-oxo-2,3-dihydropyridazin-4-yl 3-benzyl-1H-pyrazole-5-carboxylate], for which the IC50 in assay [1] lay in the range of 0.01 to 0.1 µM; in assay [2], 0.1 to 1 µM.

Source of the values: patent US10336724B2, “D-amino acid oxidase inhibitors and therapeutic uses thereof” (SyneuRx International (Taiwan) Corp., priority 2017, dated 2019).
